Source: article PMC6747015, “Structure–function study of a novel inhibitor of the casein kinase 1 family in Arabidopsis thaliana” (Plant Direct, 2019)

Legend:
[1] = target: T1, CKL3 (AT4G28880) (Arabidopsis thaliana, UniProt Q93Z18); experiment: AMI‐329 bead binding with AMI‐331 competitor, CKL3
T1 construct: from tissue; host or cells: Arabidopsis seedlings, two weeks old
Description: (§1) Screening for proteins bound to AMI‐329 beads was done by a method similar to what has previously been described (Uehara et al., 2019). Briefly, two‐week‐old seedlings grown under LD conditions were harvested at time points ZT2, ZT6, ZT9, and ZT17, and stored at −80°C. Proteins from the frozen plant samples were incubated with 0, 5, or 50 µM of AMI‐331 at 4°C for 30 min with rotary mixing. Two technical replicates were used for each experiment. PBS‐washed AMI‐329 beads were added to the protein samples and gently rotated at 4°C for 1 hr. AMI‐329 bead resins were washed with bead buffer (Uehara et al., 2019) six times. The washed resins were suspended in SDS sample buffer and boiled for 8 min. Protein samples were in‐gel‐digested as previously described (Uehara et al., 2019). Peptides were analyzed with a Q Exactive hybrid quadrupole‐orbitrap mass spectrometer (Thermo Fisher Scientific), as described previously (Uehara et al., 2019). […]
(§2) However, another possible mechanism for the strong AMI‐331 biological activity in vivo is that it targets proteins other than the CK1 family for period lengthening. […] It is noteworthy that kinase AT4G08800 is very similar to the CKL family, but the ATP‐binding pocket of mammalian CK1 as determined by its crystal structure (Shinohara et al., 2017) was absent from AT4G08800, as shown in an Araport 11 model (https://www.araport.org). […]

[2] = target: T2, CKL11 (AT4G14340) (Arabidopsis thaliana, UniProt Q39050); experiment: AMI‐329 bead binding with AMI‐331 competitor, CKL11
T2 construct: from tissue; host or cells: Arabidopsis seedlings, two weeks old
Description: as §1, §2

[3] = target: T3, CKL4 (AT4G28860) (Arabidopsis thaliana, UniProt Q8LPI7); experiment: AMI‐329 bead binding with AMI‐331 competitor, CKL4
T3 construct: from tissue; host or cells: Arabidopsis seedlings, two weeks old
Description: as §1, §2

[4] = target: T4, Membrane protein AT5G40670 (Arabidopsis thaliana, UniProt P57758); experiment: AMI‐329 bead binding with AMI‐331 competitor, membrane protein AT5G40670
T4 construct: from tissue; host or cells: Arabidopsis seedlings, two weeks old
Description: as §1, §2

[5] = target: T5, Reductase C (AT2G41680) (Arabidopsis thaliana, UniProt O22229); experiment: AMI‐329 bead binding with AMI‐331 competitor, reductase C
T5 construct: Proteins from the frozen plant samples were incubated with 0, 5, or 50 µM of AMI‐331; from tissue; host or cells: two-week-old Arabidopsis seedlings (protein lysate)
Description: as §1, §2

[6] = target: T6, RNA‐binding AT3G15010 (Arabidopsis thaliana, UniProt Q9LKA4); experiment: AMI‐329 bead binding with AMI‐331 competitor, RNA‐binding protein AT3G15010
T6 construct: Proteins from the frozen plant samples were incubated with 0, 5, or 50 µM of AMI‐331; from tissue; host or cells: two-week-old Arabidopsis seedlings (protein lysate)
Description: as §1, §2

[7] = system: CPK family; experiment: AMI‐329 bead binding with AMI‐331 competitor, CPK family; parameters: species or system Arabidopsis thaliana
Description: Screening for proteins bound to AMI‐329 beads was done by a method similar to what has previously been described (Uehara et al., 2019). Briefly, two‐week‐old seedlings grown under LD conditions were harvested at time points ZT2, ZT6, ZT9, and ZT17, and stored at −80°C. Proteins from the frozen plant samples were incubated with 0, 5, or 50 µM of AMI‐331 at 4°C for 30 min with rotary mixing. Two technical replicates were used for each experiment. PBS‐washed AMI‐329 beads were added to the protein samples and gently rotated at 4°C for 1 hr. AMI‐329 bead resins were washed with bead buffer (Uehara et al., 2019) six times. The washed resins were suspended in SDS sample buffer and boiled for 8 min. Protein samples were in‐gel‐digested as previously described (Uehara et al., 2019). Peptides were analyzed with a Q Exactive hybrid quadrupole‐orbitrap mass spectrometer (Thermo Fisher Scientific), as described previously (Uehara et al., 2019). MS/MS spectra were interpreted, and peak lists were generated using Proteome Discoverer 2.0.0.802 (Thermo Fisher Scientific). Searches were performed using SEQUEST (Thermo Fisher Scientific) against the Arabidopsis thaliana (TAIR TaxID = 3,702) peptide sequence database. […]
To examine other potential targets of AMI‐331, we analyzed the spectra for PHA767491 target proteins (Uehara et al., 2019). […]

[8] = target: T7, CKL2 (AT1G72710) (Arabidopsis thaliana, UniProt Q9CAI5); experiment: AMI‐329 bead binding with AMI‐331 competitor, CKL2
T7 construct: from tissue; host or cells: Arabidopsis seedlings, two weeks old
Description: as §1, §2

T1 sequence (Q93Z18 whole entry): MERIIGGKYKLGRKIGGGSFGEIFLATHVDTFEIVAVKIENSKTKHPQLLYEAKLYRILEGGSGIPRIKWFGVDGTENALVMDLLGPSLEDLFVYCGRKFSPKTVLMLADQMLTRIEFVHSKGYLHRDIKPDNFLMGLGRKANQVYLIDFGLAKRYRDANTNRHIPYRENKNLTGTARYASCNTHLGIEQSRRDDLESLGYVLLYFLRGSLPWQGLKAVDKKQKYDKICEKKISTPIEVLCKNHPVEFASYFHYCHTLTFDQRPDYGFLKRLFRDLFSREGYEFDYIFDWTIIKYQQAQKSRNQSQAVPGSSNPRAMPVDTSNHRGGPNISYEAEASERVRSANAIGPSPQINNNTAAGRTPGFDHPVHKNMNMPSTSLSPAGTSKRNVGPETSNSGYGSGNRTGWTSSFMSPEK
T2 sequence (Q39050 whole entry): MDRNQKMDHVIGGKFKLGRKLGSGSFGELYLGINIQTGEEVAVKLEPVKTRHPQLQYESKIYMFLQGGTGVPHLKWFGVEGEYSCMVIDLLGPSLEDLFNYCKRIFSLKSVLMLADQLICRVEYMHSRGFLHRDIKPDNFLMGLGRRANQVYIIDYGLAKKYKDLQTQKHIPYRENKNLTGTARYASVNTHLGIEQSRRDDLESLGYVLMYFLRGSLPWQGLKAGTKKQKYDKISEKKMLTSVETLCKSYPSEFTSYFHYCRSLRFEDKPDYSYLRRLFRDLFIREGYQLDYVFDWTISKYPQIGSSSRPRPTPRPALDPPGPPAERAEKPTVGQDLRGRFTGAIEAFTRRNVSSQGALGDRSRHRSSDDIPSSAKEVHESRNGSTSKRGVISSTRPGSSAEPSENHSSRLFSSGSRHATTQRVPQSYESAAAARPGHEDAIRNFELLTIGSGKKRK
T7 sequence (Q9CAI5 whole entry): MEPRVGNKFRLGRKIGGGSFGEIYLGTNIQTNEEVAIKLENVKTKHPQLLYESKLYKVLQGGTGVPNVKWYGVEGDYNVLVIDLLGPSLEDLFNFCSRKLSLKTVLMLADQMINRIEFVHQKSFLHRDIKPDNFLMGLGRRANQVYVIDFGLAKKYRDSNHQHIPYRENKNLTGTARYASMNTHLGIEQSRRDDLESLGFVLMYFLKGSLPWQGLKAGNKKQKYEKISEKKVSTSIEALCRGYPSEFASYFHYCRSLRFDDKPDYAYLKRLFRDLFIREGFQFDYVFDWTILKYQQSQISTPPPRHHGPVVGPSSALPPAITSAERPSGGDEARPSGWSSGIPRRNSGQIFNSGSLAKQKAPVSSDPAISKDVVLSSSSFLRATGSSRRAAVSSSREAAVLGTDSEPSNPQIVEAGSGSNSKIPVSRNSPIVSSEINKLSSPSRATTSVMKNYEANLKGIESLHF
T5 sequence (O22229 68-529): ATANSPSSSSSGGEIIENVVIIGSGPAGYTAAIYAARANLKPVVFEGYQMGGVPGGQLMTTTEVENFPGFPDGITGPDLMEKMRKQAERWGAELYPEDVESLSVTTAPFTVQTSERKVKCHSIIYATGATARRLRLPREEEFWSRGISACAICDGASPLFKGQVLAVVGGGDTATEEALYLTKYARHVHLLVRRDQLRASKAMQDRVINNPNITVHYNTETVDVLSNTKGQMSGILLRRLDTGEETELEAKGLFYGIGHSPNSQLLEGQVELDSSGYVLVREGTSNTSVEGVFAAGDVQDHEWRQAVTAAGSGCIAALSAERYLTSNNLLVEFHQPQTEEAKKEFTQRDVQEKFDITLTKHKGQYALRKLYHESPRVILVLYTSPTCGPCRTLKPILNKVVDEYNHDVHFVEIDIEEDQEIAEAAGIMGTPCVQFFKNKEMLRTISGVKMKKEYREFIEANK
T6 sequence (Q9LKA4 whole entry): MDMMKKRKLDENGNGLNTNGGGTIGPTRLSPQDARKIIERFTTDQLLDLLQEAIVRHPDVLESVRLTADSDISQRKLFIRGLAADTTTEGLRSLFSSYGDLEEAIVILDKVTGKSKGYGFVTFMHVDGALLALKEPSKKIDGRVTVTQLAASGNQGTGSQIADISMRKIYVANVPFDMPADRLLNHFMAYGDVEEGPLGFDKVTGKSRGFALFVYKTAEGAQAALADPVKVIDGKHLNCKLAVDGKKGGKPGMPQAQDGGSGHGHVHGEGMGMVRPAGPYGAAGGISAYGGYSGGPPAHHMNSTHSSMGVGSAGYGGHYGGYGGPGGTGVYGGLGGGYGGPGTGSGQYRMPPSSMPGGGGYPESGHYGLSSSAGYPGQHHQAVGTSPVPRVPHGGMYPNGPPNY
T4 sequence (P57758 whole entry): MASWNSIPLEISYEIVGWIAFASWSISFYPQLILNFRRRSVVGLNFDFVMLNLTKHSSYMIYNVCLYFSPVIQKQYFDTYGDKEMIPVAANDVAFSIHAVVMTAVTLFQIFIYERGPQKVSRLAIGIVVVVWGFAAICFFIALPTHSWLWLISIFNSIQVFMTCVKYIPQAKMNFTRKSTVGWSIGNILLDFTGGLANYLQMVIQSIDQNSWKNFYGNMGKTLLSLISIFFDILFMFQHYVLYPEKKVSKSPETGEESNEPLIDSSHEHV
T3 sequence (Q8LPI7 whole entry): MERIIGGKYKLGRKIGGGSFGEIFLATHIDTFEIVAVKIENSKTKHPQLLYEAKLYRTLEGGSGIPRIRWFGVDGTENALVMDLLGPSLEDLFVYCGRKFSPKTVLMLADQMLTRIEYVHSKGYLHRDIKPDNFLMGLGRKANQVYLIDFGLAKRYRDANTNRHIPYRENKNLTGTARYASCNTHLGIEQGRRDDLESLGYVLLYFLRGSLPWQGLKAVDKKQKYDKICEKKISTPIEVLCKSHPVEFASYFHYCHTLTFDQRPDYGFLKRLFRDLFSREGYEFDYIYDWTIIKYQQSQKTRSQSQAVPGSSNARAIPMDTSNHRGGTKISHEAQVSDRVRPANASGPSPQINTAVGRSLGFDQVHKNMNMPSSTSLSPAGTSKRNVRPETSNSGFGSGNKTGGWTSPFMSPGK

**Q.** For C#CCn1c2c(c(Br)c1-c1ccncc1)C(=O)NCC2.Cl [AMI‐331], which “Spectra (PSMs) AMI‐329 beads bound” value ([1]; competitor AMI‐331 5 µM) is on record?
**A.** Its value is 1 PSMs.

**Q.** What about the “Spectra (PSMs) AMI‐329 beads bound” value ([1]; competitor AMI‐331 50 µM) of the same molecule?
**A.** The value was 0 PSMs.

**Q.** And the “Spectra (PSMs) AMI‐329 beads bound” value ([2]; competitor AMI‐331 5 µM)?
**A.** Its value is 1 PSMs.

**Q.** What about the “Spectra (PSMs) AMI‐329 beads bound” value ([2]; competitor AMI‐331 50 µM) of the same molecule?
**A.** Its value is 0 PSMs.

**Q.** What about the “Spectra (PSMs) AMI‐329 beads bound” value ([3]; competitor AMI‐331 5 µM) of the same molecule?
**A.** The value was 1 PSMs.

**Q.** What about the “Spectra (PSMs) AMI‐329 beads bound” value ([3]; competitor AMI‐331 50 µM) of the same molecule?
**A.** The value was 0 PSMs.

**Q.** What about the “Spectra (PSMs) AMI‐329 beads bound” value ([4]; competitor AMI‐331 5 µM) of the same molecule?
**A.** Its value is 0 PSMs.

**Q.** What about the “Spectra (PSMs) AMI‐329 beads bound” value ([4]; competitor AMI‐331 50 µM) of the same molecule?
**A.** The value was 0 PSMs.

**Q.** What about the “Spectra (PSMs) AMI‐329 beads bound” value ([5]; competitor AMI‐331 5 µM) of the same molecule?
**A.** The value was 0 PSMs.

**Q.** What about the “Spectra (PSMs) AMI‐329 beads bound” value ([5]; competitor AMI‐331 50 µM) of the same molecule?
**A.** Its value is 0 PSMs.

**Q.** And the “Spectra (PSMs) AMI‐329 beads bound” value ([6]; competitor AMI‐331 5 µM)?
**A.** Its value is 0 PSMs.

**Q.** What about the “Spectra (PSMs) AMI‐329 beads bound” value ([6]; competitor AMI‐331 50 µM) of the same molecule?
**A.** The value was 0 PSMs.

**Q.** What about the “Target status from enrichment in 0 µM versus 5 or 50 µM samples” value [7] of the same molecule?
**A.** The value was “not a target”.

**Q.** What about the “Spectra (PSMs) AMI‐329 beads bound” value ([8]; competitor AMI‐331 5 µM) of the same molecule?
**A.** Its value is 1 PSMs.

**Q.** What about the “Spectra (PSMs) AMI‐329 beads bound” value ([8]; competitor AMI‐331 50 µM) of the same molecule?
**A.** Its value is 0 PSMs.
